Assay results published in ChEMBL document CHEMBL1152241, “Synthesis and recovery of high bioactive phenolics from table-olive brine process wastewater” (Bioorg Med Chem, 2008).
≈ marks a conversion by molar mass, not a printed value. Calls of active or inactive are those of the source. No cut-off for these calls is given here.

Experiments:
[1] = Antioxidant activity assessed as trolox equivalent of ABTS radical scavenging activity; assay type: functional
[2] = tested on: Radical scavenging activity; experiment: Antioxidant activity assessed as DPPH radical scavenging activity after 30 mins; assay type: functional
HeLa [3] = experiment: Antioxidant activity against ferrous ion-induced oxidative stress in human HeLa cells assessed as decrease in malondialdehyde formation at 10 ug/mL pretreated for 4 hrs before Fe2+ challenge by TBARS assay; assay type: functional, cell-based
Salmonella enterica = experiment: Antibacterial activity against Salmonella enterica CIP 80.39 after 24 to 72 hrs at 37 degC by broth dilution susceptibility test; assay type: functional
Pseudomonas aeruginosa = experiment: Antibacterial activity against Pseudomonas aeruginosa ATCC 15442 after 24 to 72 hrs at 30 degC by broth dilution susceptibility test; assay type: functional
Staphylococcus aureus = experiment: Antibacterial activity against Staphylococcus aureus ATCC 9144 after 24 to 72 hrs at 37 degC by broth dilution susceptibility test; assay type: functional
DG-75 [4] = experiment: Antioxidant activity against ferrous ion-induced oxidative stress in human DG75 cells assessed as decrease in malondialdehyde formation at 10 ug/mL pretreated for 4 hrs before Fe2+ challenge by TBARS assay; assay type: functional, cell-based
DG-75 [5] = experiment: Antioxidant activity against ferrous ion-induced oxidative stress in human DG75 cells assessed as decrease in malondialdehyde formation at 20 ug/mL pretreated for 4 hrs before Fe2+ challenge by TBARS assay; assay type: functional, cell-based
HeLa [6] = experiment: Cytotoxicity against human HeLa cells after 48 hrs by MTT assay; assay type: functional, cell-based
HeLa [7] = experiment: Antioxidant activity against ferrous ion-induced oxidative stress in human HeLa cells assessed as decrease in malondialdehyde formation at 20 ug/mL pretreated for 4 hrs before Fe2+ challenge by TBARS assay; assay type: functional, cell-based
DG-75 [8] = experiment: Cytotoxicity against human DG75 cells after 48 hrs by MTT assay; assay type: functional, cell-based; settings: for IC50: DG-75, 48 h
Bacillus subtilis = experiment: Antibacterial activity against Bacillus subtilis ATCC 6633 after 24 to 72 hrs at 30 degC by broth dilution susceptibility test; assay type: functional
Candida albicans = experiment: Antifungal activity against Candida albicans ATCC 10231 after 24 to 72 hrs at 28 degC by broth dilution susceptibility test; assay type: functional
[9] = Antioxidant activity assessed as ferric ion reducing activity by FRAP assay; assay type: functional
Escherichia coli = experiment: Antibacterial activity against Escherichia coli ATCC 10536 after 24 to 72 hrs at 37 degC by broth dilution susceptibility test; assay type: functional
Aspergillus niger = experiment: Antifungal activity against Aspergillus niger ATCC 16404 after 24 to 72 hrs at 28 degC by broth dilution susceptibility test; assay type: functional
PBL = experiment: Cytotoxicity against human PBL after 48 hrs by MTT assay; assay type: cell-based

For `Cc1cc(C(C)(C)C)c(O)c(C(C)(C)C)c1` [BUTYLATED HYDROXYTOLUENE], the Activity [1] was 2.37 mmol and the IC50 [2] was 7.94 mg/L (≈ 36 µM).

With `OCCc1ccc(O)c(O)c1` [HYDROXYTYROSOL] the Activity [1] was 3.4 mmol, the Activity (HeLa [3]) was “Active” and the MIC (Salmonella enterica) was 125 mg/L (≈ 811 µM). For the same molecule, the MIC (Pseudomonas aeruginosa) was 125 mg/L (≈ 811 µM), the MIC (Staphylococcus aureus) was 62.5 mg/L (≈ 405 µM) and the Activity (DG-75 [4]) was “Active”. The Activity (DG-75 [5]) was “Active”, the Activity (HeLa [6]) was “Dose-dependent effect” and the IC50 (HeLa [6]) was 70 mg/L (≈ 454 µM). The IC50 [2] was 3.71 mg/L (≈ 24.1 µM), the Activity (HeLa [7]) was “Active” and the Activity (DG-75 [8]) was “Dose-dependent effect”. The IC50 (DG-75 [8]) was 58 mg/L (≈ 376 µM), the MIC (Bacillus subtilis) was 62.5 mg/L (≈ 405 µM) and the MIC (Candida albicans) was 125 mg/L (≈ 811 µM). The Activity [9] was “Active”, the MIC (Escherichia coli) was 125 mg/L (≈ 811 µM) and the MIC (Aspergillus niger) was 250 mg/L (≈ 1620 µM). For the same molecule, the Activity (PBL) was “Not Active”.

In the case of `CC(=O)OCCc1ccc(OC(C)=O)c(OC(C)=O)c1`, the Activity [1] is reported as “inactive”, the MIC (Salmonella enterica) is reported as 250 mg/L (≈ 892 µM) and the MIC (Pseudomonas aeruginosa) is reported as 250 mg/L (≈ 892 µM). The Activity (HeLa [6]) was “Dose-dependent effect”, the IC50 (HeLa [6]) was 92 mg/L (≈ 328 µM) and the Activity [2] was “inactive”. The Activity (DG-75 [8]) was “Dose-dependent effect”, the IC50 (DG-75 [8]) was 27 mg/L (≈ 96.3 µM) and the MIC (Bacillus subtilis) was 125 mg/L (≈ 446 µM). For the same molecule, the MIC (Candida albicans) was 500 mg/L (≈ 1780 µM), the Activity [9] was “inactive” and the MIC (Escherichia coli) was 250 mg/L (≈ 892 µM). The MIC (Aspergillus niger) was 500 mg/L (≈ 1780 µM) and the Activity (PBL) was “Not Active”.
